# Biological target: T1, human renin (Homo sapiens, UniProt P00797)
# T1 construct: A human plasma pool is used as the source of both the substrate (angiotensinogen) and the enzyme (renin); from tissue; host or cells: pooled human plasma
# T1 sequence (P00797 67-406): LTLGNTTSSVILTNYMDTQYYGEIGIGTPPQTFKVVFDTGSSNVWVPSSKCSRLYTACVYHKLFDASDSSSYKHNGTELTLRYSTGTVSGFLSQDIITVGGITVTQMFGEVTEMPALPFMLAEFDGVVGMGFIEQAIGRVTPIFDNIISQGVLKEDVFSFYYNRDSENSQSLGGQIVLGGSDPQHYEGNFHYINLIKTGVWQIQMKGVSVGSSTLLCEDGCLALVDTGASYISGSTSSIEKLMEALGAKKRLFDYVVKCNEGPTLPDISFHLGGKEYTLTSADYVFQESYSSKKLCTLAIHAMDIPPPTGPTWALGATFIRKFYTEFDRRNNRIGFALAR
# Assay: plasma renin assay (inhibition of human renin; angiotensin I generated, measured by radioimmunoassay)
# Format: biochemical
# Details: human plasma pool, pH 6.0, 2 h incubation at 37°
# Description: The assay is performed as follows: The test compound (i.e. the inhibitor) is dissolved in dimethylsulfoxide (1 mM stock solution) and diluted with an aqueous buffer solution of 270 mM 2-(N-morpholino)ethanesulfonic acid and 1% human serum albumin (pH 5.85, also containing dimercaprol and 8-hydroxyquinoline sulfate in accordance with the instructions of the RIA kit noted below) to give an assay mixture in which the final dimethylsulfoxide content is 1% (v/v).
# A human plasma pool is used as the source of both the substrate (angiotensinogen) and the enzyme (renin). The reaction is initiated by the addition of 50 μL of human plasma pool to 50 μL of various concentrations of inhibitor in the 1% dimethylsulfoxide assay buffer. The plasma renin activity is measured by the amount of angiotensin I generated at pH 6.0 following a 2 h incubation at 37°.
# Quantitation of angiotensin I is performed by radioimmunoassay (RIA kit from New England Nuclear-Dupont, Mississauga, ON, Canada). The enzymatic activity of renin is expressed in ng of angiotensin I generated (/mL/2 h). The extent of inhibition of the reaction is determined from the amount of angiotensin I generated in reference to a control prepared without inhibitor. Nonlinear regression analysis is used to calculate the IC50 values, i.e. the molar concentration of the test compound required to cause a 50% inhibition of the enzyme activity.
row,Compound,IC50 [nM]
1,"CC(C)C[C@H](O)[C@H](O)[C@H](CC1CCCCC1)NC(=O)[C@@H](CC(=O)NCC(O)c1ccccn1)CC1CC1 (mixture of isomers) [Compound 22, N^4-[2(R,S)-hydroxy-2-(2-pyridinyl)ethyl]-N^1-[1(S)-(cyclohexylmethyl)-2(R),3(S)-dihydroxy-5-methylhexyl]-2(R)-(cyclopropylmethyl)butanediamide]",170
2,"CC(C)C[C@H](O)[C@H](O)[C@H](CC1CCCCC1)NC(=O)[C@@H](CC(=O)N(CC(=O)N(C)C)CC(O)C1CCCCC1)Cc1cscn1 (mixture of isomers) [Compound 42, N^4-[2-cyclohexyl-2(R,S)-hydroxyethyl]-N^4-[2-(dimethylamino)-2-oxoethyl]-N^1-[1(S)-(cyclohexylmethyl)-2(R),3(S)-dihydroxy-5-methylhexyl]-2(R)-(4-thiazolylmethyl)butanediamide]",16
3,"CC(C)C[C@H](O)[C@H](O)[C@H](CC1CCCCC1)NC(=O)[C@@H](CC(=O)N(CC(=O)N(C)C)CC(O)c1ccccc1)Cc1cscn1 (mixture of isomers) [Compound 44, N^4-[2-(dimethylamino)-2-oxoethyl]-N^4-[2(R,S)-hydroxy-2-phenylethyl]-N^1-[1(S)-(cyclohexylmethyl)-2(R),3(S)-dihydroxy-5-methylhexyl]-2(R)-(4-thiazolylmethyl)butanediamide]",10
4,"CC(C)C[C@H](O)[C@H](O)[C@H](CC1CCCCC1)NC(=O)[C@@H](CC(=O)N(CC(C)O)CC1CCCCC1)Cc1cscn1 (single isomer, unassigned) [Compound 39, N^4-(cyclohexylmethyl)-N^4-[2(R or S)-hydroxypropyl]-N^1-[1(S)-(cyclohexylmethyl)-2(R),3(S)-dihydroxy-5-methylhexyl]-2(R)-(4-thiazolylmethyl)butanediamide]",8.7
5,"CC(C)C[C@H](O)[C@H](O)[C@H](CC1CCCCC1)NC(=O)[C@@H](CC(=O)N(CC(C)O)CC1CCCCC1)Cc1cscn1 (single isomer, unassigned) [Compound 40, N^4-(cyclohexylmethyl)-N^4-[2(S or R)-hydroxypropyl]-N^1-[1(S)-(cyclohexylmethyl)-2(R),3(S)-dihydroxy-5-methylhexyl]-2(R)-(4-thiazolylmethyl)butanediamide]",11
6,"CC(C)C[C@H](O)[C@H](O)[C@H](CC1CCCCC1)NC(=O)[C@@H](CC(=O)N(Cc1ccccc1)CC1(O)CCCCC1)CC1CC1 [Compound 1, N^4-benzyl-N^4-[(1-hydroxycyclohexyl)methyl]-N^1-[1(S)-(cyclohexylmethyl)-2(R),3(S)-dihydroxy-5-methylhexyl]-2(R)-(cyclopropylmethyl)butanediamide]",36
7,"CCC[C@H](CC(=O)N(Cc1ccccc1)CC1(O)CCCCC1)C(=O)N[C@@H](CC1CCCCC1)[C@@H](O)[C@@H](O)CC(C)C [Compound 2, N^4-benzyl-N^4-[(1-hydroxycyclohexyl)methyl]-N^1-[1(S)-(cyclohexylmethyl)-2(R),3(S)-dihydroxy-5-methylhexyl]-2(R)-propylbutanediamide]",27
8,"CC(C)C[C@H](O)[C@H](O)[C@H](CC1CCCCC1)NC(=O)[C@@H](CC(=O)N(Cc1ccc2c(c1)OCO2)CC1(O)CCCCC1)CC1CC1 [Compound 3, N^4-[(1-hydroxycyclohexyl)methyl]-N^4-[(4,5-methylenedioxyphenyl)methyl]-N^1-[1(S)-(cyclohexylmethyl)-2(R),3(S)-dihydroxy-5-methylhexyl]-2(R)-(cyclopropylmethyl)butanediamide]",21
9,"CC(C)C[C@H](O)[C@H](O)[C@H](CC1CCCCC1)NC(=O)[C@@H](CC(=O)N(Cc1ccccn1)CC1(O)CCCCC1)CC1CC1 [Compound 4, N^4-[(1-hydroxycyclohexyl)methyl]-N^4-(2-pyridinylmethyl)-N^1-[1(S)-(cyclohexylmethyl)-2(R),3(S)-dihydroxy-5-methylhexyl]-2(R)-(cyclopropylmethyl)butanediamide]",36
10,"CC(C)C[C@H](O)[C@H](O)[C@H](CC1CCCCC1)NC(=O)[C@@H](CC(=O)N(CCO)CC1(O)CCCCC1)CC1CC1 [Compound 5, N^4-[(1-hydroxycyclohexyl)methyl]-N^4-(2-hydroxyethyl)-N^1-[1(S)-(cyclohexylmethyl)-2(R),3(S)-dihydroxy-5-methylhexyl]-2(R)-(cyclopropylmethyl)butanediamide]",35
11,"CC(C)C[C@H](O)[C@H](O)[C@H](CC1CCCCC1)NC(=O)[C@@H](CC(=O)N(C)CC1(O)CCCCC1)CC1CC1 [Compound 6, N^4-[(1-hydroxycyclohexyl)methyl]-N^4-methyl-N^1-[1(S)-(cyclohexylmethyl)-2(R),3(S)-dihydroxy-5-methylhexyl]-2(R)-(cyclopropylmethyl)butanediamide]",38
12,"CC(C)C[C@H](O)[C@H](O)[C@H](CC1CCCCC1)NC(=O)[C@@H](CC(=O)N(CCc1ccccn1)CC1(O)CCCCC1)CC1CC1 [Compound 7, N^4-[(1-hydroxycyclohexyl)methyl]-N^4-[2-(2-pyridinyl)ethyl]-N^1-[1(S)-(cyclohexylmethyl)-2(R),3(S)-dihydroxy-5-methylhexyl]-2(R)-(cyclopropylmethyl)butanediamide]",53
13,"CC(C)C[C@H](O)[C@H](O)[C@H](CC1CCCCC1)NC(=O)[C@@H](CC(=O)N(Cc1ccccn1)CC1(O)CCCCCC1)CC1CC1 [Compound 8, N^4-[(1-hydroxycycloheptyl)methyl]-N^4-(2-pyridinylmethyl)-N^1-[1(S)-(cyclohexylmethyl)-2(R),3(S)-dihydroxy-5-methylhexyl]-2(R)-(cyclopropylmethyl)butanediamide]",65
14,"CC(C)C[C@H](O)[C@H](O)[C@H](CC1CCCCC1)NC(=O)[C@@H](CC(=O)NC[C@H](O)c1ccccc1)CC1CC1 [Compound 9, N^4-(R)-(2-hydroxy-2-phenylethyl)-N^1-[1(S)-(cyclohexylmethyl)-2(R),3(S)-dihydroxy-5-methylhexyl]-2(R)-(cyclopropylmethyl)butanediamide]",72
15,"CC(C)C[C@H](O)[C@H](O)[C@H](CC1CCCCC1)NC(=O)[C@@H](CC(=O)NCC(O)c1ccccc1)CC1CC1 (stereo partly drawn) [Compound 10, N^4-(R,S)-(2-hydroxy-2-phenylethyl)-N^1-[1(S)-(cyclohexylmethyl)-2(R),3(S)-dihydroxy-5-methylhexyl]-2(R)-(cyclopropylmethyl)butanediamide]",74
16,"CC(C)C[C@H](O)[C@H](O)[C@H](CC1CCCCC1)NC(=O)[C@@H](CC(=O)N(Cc1ccccc1)C[C@H](O)c1ccccc1)CC1CC1 [Compound 11, N^4-benzyl-N^4-(R)-(2-hydroxy-2-phenylethyl)-N^1-[1(S)-(cyclohexylmethyl)-2(R),3(S)-dihydroxy-5-methylhexyl]-2(R)-(cyclopropylmethyl)butanediamide]",110
17,"CC(C)C[C@H](O)[C@H](O)[C@H](CC1CCCCC1)NC(=O)[C@@H](CC(=O)N(Cc1ccccc1)CC(O)c1ccccc1)CC1CC1 (stereo partly drawn) [Compound 12, N^4-benzyl-N^4-(R,S)-(2-hydroxy-2-phenylethyl)-N^1-[1(S)-(cyclohexylmethyl)-2(R),3(S)-dihydroxy-5-methylhexyl]-2(R)-(cyclopropylmethyl)butanediamide]",71

# Reference: US5523315A, “N-(hydroxyethyl)butanediamide derivatives” (Bio-Mega/Boehringer Ingelheim Research Inc., priority 1993, dated 1996)
